Reference: patent publication US10633419B2, “Immunomodulators” (BRISTOL-MYERS SQUIBB COMPANY, priority 2014, dated 2020)
Like-named read-outs stand apart in the source and are kept apart here. Starred links: 1 amine or outer side, 2 acyl side, 3 side chain; linkers in the order of their positions; H or OH if unused. Positions of bridges follow the written chain, without caps; N, C: chain ends. Non-standard residues stand in square brackets, D forms with d. Residues, ends and D or L forms follow the SMILES beside them. *: point of attachment. X17 = COCCOCCOCCOCCOCCOCCOCCOCCOCCOCCOCCOCCOCCOCCOCCOCCOCCOCCOCCOCCOCCOCCOCCOCCOCCOCCOCCOCCOCCOCCOCCOCCOCCOCCOCCOCCOCCOCCOCCOCCOCCOCCOCCOCCOCCOCCOCCOCCOCCC(=O)*; X13 = O=C(O)CCCCCCCCCCCCCCC(=O)N[C@@H](CCC(=O)NCCCOCCOCCOCCCN*)C(=O)O; Trp(1-CH2COOH) = N[C@@H](Cc1cn(CC(=O)O)c2ccccc12)C(=O)O; X9 = O=C(O)CCCCCCCCCCCCCCCCC(=O)N[C@@H](CCN*)C(=O)O; Phe(3,4,5-F3) = N[C@@H](Cc1cc(F)c(F)c(F)c1)C(=O)O; Phe(4-F) = N[C@@H](Cc1ccc(F)cc1)C(=O)O; d(cisHyp) = O=C(O)[C@H]1C[C@@H](O)CN1; βAsp = O=C(O)[C@H](CC(=O)[*:2])N[*:1]; X16 = O=C([C@H]1COCCN1[*:1])[*:2]; Hyp = O=C(O)[C@@H]1C[C@@H](O)CN1; NHhexadecyl = CCCCCCCCCCCCCCCCN*; NMeF = CN[C@@H](Cc1ccccc1)C(=O)O; NMeNle = CCCC[C@H](NC)C(=O)O; Pip = O=C(O)[C@@H]1CCCCN1; dPip = O=C(O)[C@H]1CCCCN1; NMeA = CN[C@@H](C)C(=O)O; Pra = C#CC[C@H](N)C(=O)O; Aun = NCCCCCCCCCCC(=O)O; Dab = NCC[C@H](N)C(=O)O; Dap = NC[C@H](N)C(=O)O

Target: T1, PD-L1 (Homo sapiens, UniProt Q9NZQ7)
T1 construct: hPDL1(19-239)-TVMV-His; made in house; host or cells: HEK293T
T1 sequence (Q9NZQ7 with tags, fused parts or gaps): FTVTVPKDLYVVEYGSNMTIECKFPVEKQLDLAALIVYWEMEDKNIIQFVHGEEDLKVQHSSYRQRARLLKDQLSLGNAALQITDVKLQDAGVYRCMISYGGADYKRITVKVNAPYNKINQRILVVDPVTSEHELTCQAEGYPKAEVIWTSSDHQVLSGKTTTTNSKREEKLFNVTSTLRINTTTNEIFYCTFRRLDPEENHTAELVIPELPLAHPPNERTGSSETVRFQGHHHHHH
Experiment: PD-1/PD-L1 Homogenous Time-Resolved Fluorescence (HTRF) binding assay (PD-1-Ig/PD-L1-His)
Conditions: inhibition of PD-1-Ig binding to PD-L1-TVMV-His, read-out: HTRF IC50
Text: The ability of the macrocyclic peptides of the present disclosure to bind to PD-L1 was investigated using a PD-1/PD-L1 Homogenous Time-Resolved Fluorescence (HTRF) binding assay.
Homogenous Time-Resolved Fluorescence (HTRF) Assays of Binding of Soluble PD-1 to Soluble PD-L1. Soluble PD-1 and soluble PD-L1 refers to proteins with carboxyl-end truncations that remove the transmembrane-spanning regions and are fused to heterologous sequences, specifically the Fc portion of the human immunoglobuling G sequence (Ig) or the hexahistidine epitope tag (His). All binding studies were performed in an HTRF assay buffer consisting of dPBS supplemented with 0.1% (w/v) bovine serum albumin and 0.05% (v/v) Tween-20. For the PD-1-Ig/PD-L1-His binding assay, inhibitors were pre-incubated with PD-L1-His (10 nM final) for 15 m in 4 μl of assay buffer, followed by addition of PD-1-Ig (20 nM final) in 1 μl of assay buffer and further incubation for 15m. PD-L1 fusion proteins from either human, cynomologous macaques, mouse, or other species were used. HTRF detection was achieved using europium crypate-labeled anti-Ig monoclonal antibody (1 nM final) and allophycocyanin (APC) labeled anti-His monoclonal antibody (20 nM final). Antibodies were diluted in HTRF detection buffer and 5 μl was dispensed on top of binding reaction. The reaction was allowed to equilibrate for 30 minutes and signal (665 nm/620 nm ratio) was obtained using an EnVision fluorometer. Additional binding assays were established between PD-1-Ig/PD-L2-His (20 and 5 nM, respectively), CD80-His/PD-L1-Ig (100 and 10 nM, respectively) and CD80-His/CTLA4-Ig (10 and 5 nM, respectively). Binding/competition studies between biotinylated Compound No. 71 and human PD-L1-His were performed as follows. Macrocyclic peptide inhibitors were pre-incubated with PD-L1-His (10 nM final) for 60 minutes in 4 μl of assay buffer followed by addition of biotinylated Compound No. 71 (0.5 nM final) in 1 μl of assay buffer. Binding was allowed to equilibrate for 30 minutes followed by addition of europium crypated labeled Streptavidin (2.5 pM final) and APC-labeled anti-His (20 nM final) in 5 μl of HTRF buffer. The reaction was allowed to equilibrate for 30m and signal (665 nm/620 nm ratio) was obtained using an EnVision fluorometer.
Recombinant Proteins. Carboxyl-truncated human PD-1 (amino acids 25-167) with a C-terminal human Ig epitope tag [hPD-1 (25-167)-3S-IG] and human PD-L1 (amino acids 18-239) with a C-terminal His epitope tag [hPD-L1(19-239)-tobacco vein mottling virus protease cleavage site (TVMV)-His] were expressed in HEK293T cells and purified sequentially by recombinant Protein A affinity chromatography and size exclusion chromatography. Human PD-L2-His (Sino Biologicals), CD80-His (Sino Biologicals), CTLA4-Ig (RnD Systems) were all obtained through commercial sources.

SMILES	IC50 (value given as range class) [nM]	IC50 (value given as number) [nM]
CCCC[C@H]1C(=O)N(C)[C@@H](CCCC)C(=O)N[C@@H](CCCNC(=N)N)C(=O)N[C@H](C(=O)NCCCCCCCCCCC(N)=O)CSCC(=O)N[C@@H](Cc2ccc(O)cc2)C(=O)N(C)[C@@H](C)C(=O)N[C@@H](CC(=O)O)C(=O)N2CCC[C@H]2C(=O)N[C@@H](Cc2cnc[nH]2)C(=O)N[C@@H](CC(C)C)C(=O)N2C[C@H](O)C[C@H]2C(=O)N[C@@H](Cc2c[nH]c3ccccc23)C(=O)N[C@@H](CO)C(=O)N[C@@H](Cc2c[nH]c3ccccc23)C(=O)N1C [Example 11064] ({CH2CO}-Y[NMeA]DPHL[Hyp]WSW[NMeNle][NMeNle]RC[Aun]-NH2; thioether N-14)	0.3 to 9.9	
CCCC[C@H]1C(=O)N(C)[C@@H](CCCC)C(=O)N[C@@H](CC(C)C)C(=O)N[C@H](C(=O)NCC(=O)N[C@@H](CCC(=O)NCC[C@H](NC(=O)CCCCCCCCCCCCCCCCC(=O)O)C(=O)O)C(=O)O)CSCC(=O)N[C@@H](Cc2ccc(F)cc2)C(=O)N2CCCC[C@H]2C(=O)N[C@@H](CC(=O)O)C(=O)N2CCC[C@H]2C(=O)N[C@@H](CN)C(=O)N[C@@H](CC(C)C)C(=O)N2C[C@H](O)C[C@H]2C(=O)N[C@@H](Cc2c[nH]c3ccccc23)C(=O)N[C@@H](CCN)C(=O)N[C@@H](Cc2cn(CC(=O)O)c3ccccc23)C(=O)N1C [Example 13148] ({CH2CO}-[Phe(4-F)][Pip]DP[Dap]L[Hyp]W[Dab][Trp(1-CH2COOH)][NMeNle][NMeNle]LCGE(X9)-OH; thioether N-14)	10 to 99	
C#CC[C@H](NC(=O)CNC(=O)[C@@H]1CSCC(=O)N[C@@H](Cc2ccc(O)cc2)C(=O)N(C)[C@@H](C)C(=O)N[C@@H](CC(=O)O)C(=O)N2CCC[C@H]2C(=O)N[C@@H](Cc2c[nH]cn2)C(=O)N[C@@H](CCCCN)C(=O)N2C[C@H](O)C[C@H]2C(=O)N[C@@H](Cc2c[nH]c3ccccc23)C(=O)N[C@@H](CCCCN)C(=O)N[C@@H](Cc2c[nH]c3ccccc23)C(=O)N(C)[C@@H](CCCC)C(=O)N(C)[C@@H](CCCC)C(=O)N[C@@H](CCC(=O)O)C(=O)N1)C(N)=O [INT 1400F, ClAc-Tyr-mAla-Asp-Pro-His-Lys-Hyp-Trp-Lys-Trp-mNle-mNle-Glu-Cys-Gly-[(S)-propargylglycine]] ({CH2CO}-Y[NMeA]DPHK[Hyp]WKW[NMeNle][NMeNle]ECG[Pra]-NH2; thioether N-14)	0.3 to 9.9	
CCCC[C@H]1C(=O)N(C)[C@@H](CCCC)C(=O)N[C@@H](CCCNC(=N)N)C(=O)N[C@H](C(=O)NCC(=O)N[C@@H](CCn2cc(CNC(=O)COCCOCCOC)nn2)C(N)=O)CSCC(=O)N[C@@H](Cc2ccc(O)cc2)C(=O)N(C)[C@@H](C)C(=O)N[C@@H](CC(N)=O)C(=O)N2CCC[C@H]2C(=O)N[C@@H](CN)C(=O)N[C@@H](CC(C)C)C(=O)N2C[C@H](O)C[C@H]2C(=O)N[C@@H](Cc2c[nH]c3ccccc23)C(=O)N[C@@H](CO)C(=O)N[C@@H](Cc2csc3ccccc23)C(=O)N1C [Example 13052]	10 to 99	
CCCC[C@H]1C(=O)N2C[C@H](O)C[C@@H]2C(=O)N[C@@H](CC(=O)O)C(=O)N[C@@H](C(C)C)C(=O)N(C)[C@@H](Cc2ccccc2)C(=O)N[C@@H](Cc2ccc(O)cc2)C(=O)N2CCCC[C@@H]2C(=O)N[C@@H](Cc2c[nH]c3ccccc23)C(=O)N[C@@H](Cc2ccc(O)cc2)C(=O)N[C@@H](CC(C)C)C(=O)N[C@H](C(=O)NCC(=O)NCC(=O)NCC(=O)N[C@@H](CCCCNC(=O)CCOCCOCCOCCOCCOCCOCCOCCOCCOCCOCCOCCOCCOCCOCCOCCOCCOCCOCCOCCOCCOCCOCCOCCOCCOCCOCCOCCOCCOCCOCCOCCOCCOCCOCCOCCOCCOCCOCCOCCOCCOCCOCCOCCOCCOCCOCCOCCOCCOC)C(N)=O)CSCC(=O)N[C@@H](Cc2cc(F)c(F)c(F)c2)C(=O)N(C)[C@@H](Cc2ccccc2)C(=O)N1C [Example 3625] ({CH2CO}-[Phe(3,4,5-F3)][NMeF][NMeNle][d(cisHyp)]DV[NMeF]Y[dPip]WYLCGGGK(X17)-NH2; thioether N-13)		6.3
CCCC[C@H]1C(=O)N(C)[C@@H](CCCC)C(=O)N[C@@H](CCC(=O)O)C(=O)N[C@H](C(=O)NCC(=O)NCC(=O)NCC(=O)NCCCCCCCCCCC(=O)O)CSCC(=O)N[C@@H](Cc2ccc(O)cc2)C(=O)N(C)[C@@H](C)C(=O)N[C@@H](CC(=O)O)C(=O)N2CCC[C@H]2C(=O)N[C@@H](CN)C(=O)N[C@@H](CC(C)C)C(=O)N2C[C@H](O)C[C@@H]2C(=O)N[C@@H](Cc2c[nH]c3ccccc23)C(=O)N[C@@H](CCN)C(=O)N[C@@H](Cc2cn(CC(=O)O)c3ccccc23)C(=O)N1C [Example 11144] ({CH2CO}-Y[NMeA]DP[Dap]L[d(cisHyp)]W[Dab][Trp(1-CH2COOH)][NMeNle][NMeNle]ECGGG[Aun]-OH; thioether N-14)	10 to 99	
CCCCCCCCCCCCCCCCNC(=O)CNC(=O)CNC(=O)CNC(=O)CNC(=O)[C@@H]1CSCC(=O)N[C@@H](Cc2ccc(O)cc2)C(=O)N(C)[C@@H](C)C(=O)N[C@@H](CC(N)=O)C(=O)N2CCC[C@H]2C(=O)N[C@@H](CN)C(=O)N[C@@H](CC(C)C)C(=O)N2C[C@H](O)C[C@H]2C(=O)N[C@@H](Cc2c[nH]c3ccccc23)C(=O)N[C@@H](CO)C(=O)N[C@@H](Cc2c[nH]c3ccccc23)C(=O)N(C)[C@@H](CCCC)C(=O)N(C)[C@@H](CCCC)C(=O)N[C@@H](CCCNC(=N)N)C(=O)N1 [Example 11108] ({CH2CO}-Y[NMeA]NP[Dap]L[Hyp]WSW[NMeNle][NMeNle]RCGGGG-NHhexadecyl; thioether N-14)	100 to 1600	
CCCC[C@H]1C(=O)N(C)[C@@H](CCCC)C(=O)N[C@@H](CC(C)C)C(=O)N[C@H](C(=O)NCC(=O)N[C@@H](CC(=O)O)C(=O)N[C@@H](CCC(=O)NCCCOCCOCCOCCCNC(=O)CC[C@H](NC(=O)CCCCCCCCCCCCCCC(=O)O)C(=O)O)C(=O)O)CSCC(=O)N[C@@H](Cc2ccc(O)cc2)C(=O)N(C)[C@@H](C)C(=O)N[C@@H](CC(N)=O)C(=O)N2CCC[C@H]2C(=O)N[C@@H](CN)C(=O)N[C@@H](CC(C)C)C(=O)N2C[C@H](O)C[C@H]2C(=O)N[C@@H](Cc2c[nH]c3ccccc23)C(=O)N[C@@H](CCN)C(=O)N[C@@H](Cc2cn(CC(=O)O)c3ccccc23)C(=O)N1C [Example 11170] ({CH2CO}-Y[NMeA]NP[Dap]L[Hyp]W[Dab][Trp(1-CH2COOH)][NMeNle][NMeNle]LCGDE(X13)-OH; thioether N-14)	0.3 to 9.9	
CCCC[C@H]1C(=O)N(C)[C@@H](CCCC)C(=O)N[C@@H](CC(C)C)C(=O)N[C@H](C(=O)NCC(=O)N[C@@H](CC(=O)N2CCOC[C@@H]2C(=O)NCC[C@H](NC(=O)CCCCCCCCCCCCCCCCC(=O)O)C(=O)O)C(=O)O)CSCC(=O)N[C@@H](Cc2ccc(O)cc2)C(=O)N2CCCC[C@H]2C(=O)N[C@@H](CC(N)=O)C(=O)N2CCC[C@H]2C(=O)N[C@@H](CN)C(=O)N[C@@H](CC(C)C)C(=O)N2C[C@H](O)C[C@H]2C(=O)N[C@@H](Cc2c[nH]c3ccccc23)C(=O)N[C@@H](CCN)C(=O)N[C@@H](Cc2cn(CC(=O)O)c3ccccc23)C(=O)N1C [Example 13158] ({CH2CO}-Y[Pip]NP[Dap]L[Hyp]W[Dab][Trp(1-CH2COOH)][NMeNle][NMeNle]LCG[βAsp][X16]-X9; thioether N-14)	0.3 to 9.9	
